The numbers were not newly measured in patent US11712474B2, “Reduction of post-surgery cancer metastasis by combination of cannabidiol and NR2F6 inhibition” (priority 2019, dated 2023), which cites them from elsewhere.

Like-named read-outs stand apart in the source and are kept apart here.

Data set [1] has as its system mitogen-activated human peripheral blood mononuclear cells (PBMC).
Where [2] appears, read: cells of CBD-treated mice vs untreated control mice.

Regarding `C=C(C)[C@@H]1CCC(C)=C[C@H]1c1c(O)cc(CCCCC)cc1O` [CBD, cannabidiol], in the data set with NOD mice (CBD-treated NOD mice), the “insulitis, histological examination of pancreatic islets” value is “significantly reduced”; the “plasma levels of pro-inflammatory cytokines IFN-gamma and TNF-alpha” value is “significant reduction”. Also, the incidence of diabetes with NOD mice (CBD-treated NOD mice, 86% in non-treated control mice) was 30%. Besides, in the data set on NOD mice (setting [2]), the “Th1-associated cytokine production of in vitro activated T-cells and peritoneal macrophages” value is “significantly reduced”; the “production of Th2-associated cytokines IL-4 and IL-10” value was “increased”. Also, in data set [1], the IL-2 secretion entry is reported as “no effect”, the “increase of the concentration of measurable IFN” value is 68%, the “measurable quantity of IL-1” value was “decrease” and the “measurable quantity of TNF” value was “decrease”. Also, in data set [1] (high concentrations, 5-20 micrograms/ml), the “synthesis and/or release of IFN” value was “completely blocked”.

For the compound `CCCCCc1cc(O)c2c(c1)OC(C)(C)[C@@H]1CCC(C)=C[C@@H]21` [THC, delta-9-tetrahydrocannabinol], in data set [1], the IL-2 secretion result is on record as “no effect”, the “increase of the concentration of measurable IFN” value is 139% and the “synthesis and/or release of IFN” value is reported as “completely blocked”.
